Test results taken from US5660613A, “Anaerobic/aerobic decontamination of DDT contaminated soil by repeated anaerobic/aerobic treatments” (Zeneca Corp., priority 1995, dated 1997).

Columns and labels:
[1] = Fate of radiolabelled DDT in the soil system with different surfactants, anaerobic/aerobic sequence (Table 2); settings: anaerobic/aerobic cycles, 35° C.; for % DDD (% remaining after tests) / % Other (% remaining after tests) / % DDE (% remaining after tests): from radiolabelled DDT; for % DDT (% remaining after tests): 80640 min
Method: The soil to be remediated contains populations of >10^5 cfu/g of viable aerobic and anaerobic microbes capable of rendering DDT-type contaminants harmless and being viable under both anaerobic and aerobic conditions. This soil contains DDT (200 ppm), DDD (22 ppm) and DDE (18 ppm). Six twenty gram samples of soil are added to 50-ml polypropylene tubes with 25 ml of water containing 500 ppm each of cysteine and sulphite reducing agents. This creates a supersaturated anaerobic degradation zone immersed in water. To each slurry sample is added 500 ppm of different surfactants and 1 ppm of radiolabelled 4,4'-DDT ring UL C^14 in hexane.
The tubes are capped and incubated stationary for 2 weeks at 35° C. After 2 weeks the tubes are opened and the contents are each transferred to a foam-capped jar and aerated by rotary incubation (150 rpm), for a further 2 weeks at 35° C. The anaerobic/aerobic cycle is repeated 2 times.
The samples are then extracted and the fate of the radiolabelled DDT is determined by thin layer chromatography and autoradiography/densitometry. The experiments are replicated to obtain average results.

[2] = Large scale anaerobic/aerobic repeated sequence, biopile technique; settings: after 16 weeks of cycling, weekly air on/off, 22° C. to 28° C., initial DDT 728, DDD 87, DDE 50 ppm, 161280 min
Excerpt: Eight tons of soil containing DDT (728 ppm), DDD (87 ppm) and DDE (50 ppm) is placed in an enclosed degradation zone box 8 foot by 8 foot by 8 feet. The soil is amended with 5% straw nutrient. Water is continuously dripped onto the surface of the soil to supersaturate, and the leachate is collected at the bottom and recycled at a rate of 20 to 100 L/tonne/day. Oxygenation is accomplished by passing air through a mechanical distribution system in the soil at the rate of 44 L/tonne/day, weekly alternating the air on and off. The temperatures of the soil during treatment range from 22° C. to 28° C. The redox potential level in the treatment zone stays below negative 200 mV when aeration is off and above positive 100 mV when aeration is on.
Sodium acetate nutrient is added as required to boost the COD to above 300 mg/L, and maintain population counts above 10^5 cfu/g, of anaerobic and aerobic bacteria; and surfactants (a mixture of "Triton" X-100 and "DAWN") is added as required to maintain surface tension below 70 dynes/cm measured in the leachate, which is recycled.

[3] = Fate of radiolabelled DDT in the soil system, aerobic / anaerobic / anaerobic then aerobic incubation (Table 1); settings: for % DDD (% remaining after tests) / % Other (% remaining after tests) / % DDE (% remaining after tests): from radiolabelled DDT; for % DDT (% remaining after tests): Triton X-100 500 ppm, 80640 min
Excerpt: This example compares the repeated anaerobic/aerobic sequence treatment method of the present invention with single anaerobic treatment and single aerobic treatment in the degradation of DDT in a soil system.
The soil in this example contains populations of >10^5 cfu/g viable aerobic and anaerobic microbes capable of rendering DDT-type contaminants harmless and being viable under both anaerobic and aerobic conditions. This soil contains DDT (200 ppm), DDD (22 ppm) and DDE (18 ppm).
Six 20 g samples of soil are each mixed with 25 ml of water containing 500 ppm each of cysteine and sulphite reducing agents and 500 ppm of "Triton"-X-100. To these slurries are added 1 ppm of radiolabelled 4,4'-DDT-ring UL C^14 in hexane. Two 20 g samples are incubated anaerobically (in 50-ml polypropylene tubes at 35° C., stationary);two 20 g samples are incubated aerobically (in rotating jars with foam plugs at 35° C., 150 rpm); and two 20 g samples are incubated on a 2 week anaerobic/2 week aerobic cycle for a total of 8 weeks.
Redox potential is monitored. After the aerobic phase redox is greater than +100 mV and after the anaerobic incubation redox potential is less than -200 mV.
The incubation samples are extracted, and the fate of the radiolabelled DDT is determined by thin layer chromatography and autoradiography/densitometry. The experiments are repeated to obtain average results.

[4] = Pilot scale anaerobic/aerobic cycling of DDT-contaminated soil (immersion), solvent extraction and GC ECD analysis; settings: after 16 weeks; one month immersed/drained cycles; 22° C. to 28° C.; initial DDT 728, DDD 87, DDE 50 ppm; 161280 min
Method: Three-quarters of a ton of soil that contains DDT (728 ppm), DDD (87 ppm) and DDE (50 ppm) is placed in an enclosed degradation zone box 8 foot by 8 foot by 18 inches. It is alternately immersed in water and drained on one month cycles. Sodium acetate nutrient (500 ppm) is added as required to maintain the COD above 300 mg/L, and a mixture of "Triton" X-100 and "DAWN" nonionic surfactants is added as required to maintain the surface tension in the leachate below 70 dynes/cm. The material is cultivated by hand weekly to aerate the degradation zone and render it aerobic during the drained phase. During the treatment, the temperature ranges from 22° C. to 28° C. The redox potential level in the treatment zone stays below negative 200 mV while immersed in water and above positive 100 mV while drained. While drained the water content of the soil is in the range of 40-100% WHC.
After 16 weeks 72% of the DDT, 31% of the DDD and 54% of the DDE is degraded, as measured by solvent extraction and GC ECD analysis.

[5] = Aerobic, 35° C., 150 rpm, 8 weeks
[6] = Anaerobic then Aerobic, 2 week/2 week cycle, total 8 weeks
[7] = Anaerobic, 35° C., stationary, 8 weeks

Clc1ccc(C(c2ccc(Cl)cc2)C(Cl)Cl)cc1 [DDD, 1,1,dichloro-2,2-bis(p-chlorophenyl)ethane]
% DDD (% remaining after tests) ([1]; "Dawn" 500 ppm): 75%
% DDD (% remaining after tests) ([1]; "Triton" X-100 500 ppm): 40%
% DDD (% remaining after tests) ([1]; No Surfactant): 15%
% degraded [2]: 55%
% DDD (% remaining after tests) [3, 5]: 17%
% DDD (% remaining after tests) [3, 6]: 60%
% DDD (% remaining after tests) [3, 7]: 30%
% degraded [4]: 31%

Clc1ccc(C(c2ccc(Cl)cc2)C(Cl)(Cl)Cl)cc1 [DDT, 1,1,1-trichloro-2,2-bis(p-chlorophenyl)ethane]
% DDT (% remaining after tests) ([1]; "Dawn" 500 ppm): 10%
% Other (% remaining after tests) ([1]; "Dawn" 500 ppm): 15%
% DDT (% remaining after tests) ([1]; "Triton" X-100 500 ppm): 0%
% Other (% remaining after tests) ([1]; "Triton" X-100 500 ppm): 60%
% DDT (% remaining after tests) ([1]; No Surfactant): 85%
% Other (% remaining after tests) ([1]; No Surfactant): 0%
% degraded [2]: 53%
% DDT (% remaining after tests) [3, 5]: 80%
% Other (% remaining after tests) [3, 5]: 1%
% DDT (% remaining after tests) [3, 6]: 10%
% Other (% remaining after tests) [3, 6]: 30%
% DDT (% remaining after tests) [3, 7]: 60%
% Other (% remaining after tests) [3, 7]: 10%
% degraded [4]: 72%

ClC(Cl)=C(c1ccc(Cl)cc1)c1ccc(Cl)cc1 [DDE, 2,2-bis(p-chlorophenyl)1,1-dichloroethylene]
% DDE (% remaining after tests) ([1]; "Dawn" 500 ppm): trace
% DDE (% remaining after tests) ([1]; "Triton" X-100 500 ppm): trace
% DDE (% remaining after tests) ([1]; No Surfactant): 0%
% degraded [2]: 54%
% DDE (% remaining after tests) [3, 5]: 2%
% DDE (% remaining after tests) [3, 6]: trace
% DDE (% remaining after tests) [3, 7]: 0%
% degraded [4]: 54%
